System: 460 barcoded cancer cell lines
Assay: PRISM pooled barcoded cancer cell line growth screen, 10-point dose-response, 5 days, AUC
Assay type: cell-based
Set-up: scale not given here
From the text: Several small molecule inhibitors of distinct protein domains of EP300/CBP are available, though the majority target the histone acetyltransferase domain (HAT) or bromodomain (BRD)[5],[10],[21],[22]. […] We used these tools to investigate the relative contribution of the EP300/CBP BRD or HAT domain to tumor cell growth (Fig. 1a). To do so, we performed 10-point, dose-response growth assays using mixed pools of 460 barcoded cancer cell lines, over five days of treatment in vitro[33],[34]. Growth was measured using an area-under-the-curve (AUC) approach (Supplementary Table 1, Supplementary Fig. 1a). […] Given potential differences in compound penetration and solubility, and to compare the relative cell line and tumor-specific effects of these two compounds in assays performed non-simultaneously, we performed a median normalization of each dataset (Supplementary Table 2).

Compound: CNC(=O)Nc1ccc2c(c1)CCC21OC(=O)N(CC(=O)N(Cc2ccc(F)cc2)C(C)C(F)(F)F)C1=O (centres unmarked) [Compound A485]
- AUC (22RV1, Prostate Cancer): 0.5834
- AUC (42MGBA, Glioma): 0.8468
- AUC (143B, Osteosarcoma): 1
- AUC (639V, Bladder Cancer): 0.8274
- AUC (647V, Bladder Cancer): 0.6672
- AUC (697, B-cell Leukemia): 0.5617
- AUC (769P, Kidney Cancer): 0.6332
- AUC (5637, Bladder Cancer): 0.8843
- AUC (8305C, Thyroid Cancer): 0.7544
- AUC (A101D, Melanoma): 0.9258
- AUC (A204, Rhabdoid): 0.6513
- AUC (A253, Head and Neck Cancer): 0.8228
- AUC (A375, Melanoma): 0.749
- AUC (A427, Lung Cancer): 0.6968
- AUC (A673, Ewing Sarcoma): 1
- AUC (A1207, Glioblastoma): 0.7712
- AUC (ACHN, Kidney Cancer): 0.5417
- AUC (AGS, Gastric Cancer): 0.7849
- AUC (AM38, Glioblastoma): 1
- AUC (AN3CA, Endometrial/Uterine Cancer): 0.8692
- AUC (AU565, Breast Cancer): 0.7944
- AUC (BDCM, AML): 0.9026
- AUC (BEN, Lung Cancer): 0.8869
- AUC (BFTC905, Bladder Cancer): 0.6715
- AUC (BHT101, Thyroid Cancer): 0.6133
- AUC (BICR16, Head and Neck Cancer): 0.6804
- AUC (BICR18, Head and Neck Cancer): 1
- AUC (BICR22, Head and Neck Cancer): 0.7556
- AUC (BICR31, Head and Neck Cancer): 0.7077
- AUC (BICR56, Head and Neck Cancer): 0.6769
- AUC (BT16, Rhabdoid): 1
- AUC (BT474, Breast Cancer): 0.9498
- AUC (C32, Melanoma): 0.9339
- AUC (C8166, Lymphoma): 0.6916
- AUC (CADOES1, Ewing Sarcoma): 0.6865
- AUC (CAKI1, Kidney Cancer): 0.6849
- AUC (CAL27, Head and Neck Cancer): 0.7545
- AUC (CAL54, Kidney Cancer): 0.4813
- AUC (CAL62, Thyroid Cancer): 0.8629
- AUC (CAL78, Chondrosarcoma): 0.8774
- AUC (CAL120, Breast Cancer): 0.8951
- AUC (CAOV3, Ovarian Cancer): 0.8124
- AUC (CBAGPN, Ewing Sarcoma): 0.8343
- AUC (CCK81, Colon/Colorectal Cancer): 0.7195
- AUC (CHAGOK1, Lung Cancer): 0.9372
- AUC (CHL1, Melanoma): 0.6205
- AUC (CHLA06ATRT, Rhabdoid): 1
- AUC (CHLA10, Ewing Sarcoma): 0.7781
- AUC (CHLA15, Neuroblastoma): 0.7188
- AUC (CHLA57, Ewing Sarcoma): 0.9584
- AUC (CHP212, Neuroblastoma): 0.8072
- AUC (CI1, B-cell Lymphoma): 0.7779
- AUC (CJM, Melanoma): 0.6266
- AUC (CL11, Colon/Colorectal Cancer): 0.6639
- AUC (CL34, Colon/Colorectal Cancer): 0.6654
- AUC (CMLT1, CML): 0.6607
- AUC (COGAR359, Rhabdoid): 1
- AUC (COGE352, Ewing Sarcoma): 1
- AUC (COLO320, Colon/Colorectal Cancer): 1
- AUC (COLO678, Colon/Colorectal Cancer): 0.7938
- AUC (COLO783, Melanoma): 0.9045
- AUC (COLO792, Melanoma): 0.7929
- AUC (CORL23, Lung Cancer): 0.831
- AUC (CORL105, Lung Cancer): 0.7616
- AUC (COV318, Ovarian Cancer): 0.7366
- AUC (COV434, Ovarian Cancer): 0.6392
- AUC (COV644, Ovarian Cancer): 0.7528
- AUC (CW2, Colon/Colorectal Cancer): 0.9324
- AUC (CW9019, Rhabdomyosarcoma): 0.6452
- AUC (DAOY, Medulloblastoma): 0.7773
- AUC (DEL, Lymphoma): 0.7007
- AUC (DETROIT562, Head and Neck Cancer): 0.6189
- AUC (DKMG, Glioblastoma): 0.8817
- AUC (DL, Rhabdoid): 0.6996
- AUC (DMS53, Lung Cancer): 0.6382
- AUC (DMS273, Lung Cancer): 0.7762
- AUC (DND41, T-acute leukemia): 0.7502
- AUC (DU145, Prostate Cancer): 0.8463
- AUC (DU4475, Breast Cancer): 0.4233
- AUC (DV90, Lung Cancer): 0.6128
- AUC (EB1, Lymphoma): 1
- AUC (EBC1, Lung Cancer): 0.8735
- AUC (ECC10, Gastric Cancer): 0.8444
- AUC (ECGI10, Esophageal Cancer): 0.8435
- AUC (EFE184, Endometrial/Uterine Cancer): 1
- AUC (EFM19, Breast Cancer): 0.5992
- AUC (EFO21, Ovarian Cancer): 0.9024
- AUC (EM2, CML): 0.902
- AUC (EN, Endometrial/Uterine Cancer): 0.9736
- AUC (ES2, Ovarian Cancer): 0.7477
- AUC (ESS1, Endometrial/Uterine Cancer): 0.9044
- AUC (EW8, Ewing Sarcoma): 0.7371
- AUC (EWS502, Ewing Sarcoma): 0.6563
- AUC (FADU, Head and Neck Cancer): 0.9573
- AUC (FTC133, Thyroid Cancer): 0.8254
- AUC (FTC238, Thyroid Cancer): 0.7484
- AUC (G292CLONEA141B1, Osteosarcoma): 1
- AUC (G361, Melanoma): 0.6803
- AUC (G401, Rhabdoid): 1
- AUC (G402, Rhabdoid): 0.9975
- AUC (GB1, Glioblastoma): 0.7582
- AUC (GCT, Pleomorphic Sarcoma): 0.8933
- AUC (GI1, Glioblastoma): 0.757
- AUC (GOS3, Glioblastoma): 0.9534
- AUC (GP2D, Colon/Colorectal Cancer): 0.7575
- AUC (GRANTA519, Lymphoma): 0.8493
- AUC (GSS, Gastric Cancer): 0.6579
- AUC (HARA, Lung Cancer): 0.7108
- AUC (HCC33, Lung Cancer): 0.908
- AUC (HCC38, Breast Cancer): 0.7435
- AUC (HCC44, Lung Cancer): 0.6558
- AUC (HCC56, Colon/Colorectal Cancer): 0.6212
- AUC (HCC78, Lung Cancer): 0.7931
- AUC (HCC95, Lung Cancer): 0.8823
- AUC (HCC515, Lung Cancer): 0.6901
- AUC (HCC1419, Breast Cancer): 0.6161
- AUC (HCC1428, Breast Cancer): 0.6381
- AUC (HCC1438, Lung Cancer): 0.9014
- AUC (HCC1806, Breast Cancer): 0.8548
- AUC (HCC1937, Breast Cancer): 0.6971
- AUC (HCC2108, Lung Cancer): 1
- AUC (HCC4006, Lung Cancer): 0.7024
- AUC (HCT116, Colon/Colorectal Cancer): 0.9205
- AUC (HDMYZ, Lymphoma): 1
- AUC (HDQP1, Breast Cancer): 0.7294
- AUC (HEC1B, Endometrial/Uterine Cancer): 0.8662
- AUC (HEC6, Endometrial/Uterine Cancer): 0.9741
- AUC (HEC50B, Endometrial/Uterine Cancer): 1
- AUC (HEL9217, AML): 0.6119
- AUC (HEL, AML): 0.5914
- AUC (HEP3B217, Liver Cancer): 0.7234
- AUC (HEPG2, Liver Cancer): 0.8554
- AUC (HEYA8, Ovarian Cancer): 0.9784
- AUC (HGC27, Gastric Cancer): 0.9226
- AUC (HH, Lymphoma): 0.7764
- AUC (HOS, Osteosarcoma): 0.9517
- AUC (HPBALL, T-acute leukemia): 0.8767
- AUC (HS294T, Melanoma): 0.8326
- AUC (HS766T, Pancreatic Cancer): 0.7648
- AUC (HSC2, Head and Neck Cancer): 0.6896
- AUC (HSC3, Head and Neck Cancer): 0.8176
- AUC (HT29, Colon/Colorectal Cancer): 0.7629
- AUC (HT115, Colon/Colorectal Cancer): 1
- AUC (HT144, Melanoma): 0.8574
- AUC (HT1197, Bladder Cancer): 0.9829
- AUC (HT, B-cell Lymphoma): 0.6247
- AUC (HUCCT1, Bile Duct Cancer): 0.8158
- AUC (HUG1N, Gastric Cancer): 0.7448
- AUC (HUH1, Liver Cancer): 0.7158
- AUC (HUH7, Liver Cancer): 1
- AUC (HUH28, Bile Duct Cancer): 0.821
- AUC (HUPT3, Pancreatic Cancer): 0.6895
- AUC (HUPT4, Pancreatic Cancer): 0.6862
- AUC (HUT78, Lymphoma): 0.9441
- AUC (IALM, Lung Cancer): 0.6559
- AUC (IGR37, Melanoma): 0.6843
- AUC (IGROV1, Ovarian Cancer): 0.8359
- AUC (IM95, Gastric Cancer): 0.7117
- AUC (IPC298, Melanoma): 0.8033
- AUC (ISHIKAWAHERAKLIO02ER, Endometrial/Uterine Cancer): 0.9178
- AUC (ISTMES1, Lung Cancer): 0.7574
- AUC (J82, Bladder Cancer): 0.8707
- AUC (JEKO1, Lymphoma): 0.7073
- AUC (JHH1, Liver Cancer): 0.7161
- AUC (JHH4, Liver Cancer): 0.849
- AUC (JHH5, Liver Cancer): 0.5701
- AUC (JHH7, Liver Cancer): 0.6779
- AUC (JHOC5, Ovarian Cancer): 0.8969
- AUC (JHUEM7, Endometrial/Uterine Cancer): 1
- AUC (JVM3, B-cell Leukemia): 0.6743
- AUC (K029AX, Melanoma): 0.7933
- AUC (KALS1, Glioblastoma): 0.6866
- AUC (KARPAS620, Myeloma): 0.9002
- AUC (KATOIII, Gastric Cancer): 0.6951
- AUC (KCL22, CML): 0.6275
- AUC (KD, Rhabdoid): 0.6425
- AUC (KE37, T-acute leukemia): 0.6716
- AUC (KE39, Gastric Cancer): 0.7203
- AUC (KELLY, Neuroblastoma): 0.5242
- AUC (KMBC2, Bladder Cancer): 0.7261
- AUC (KMS11, Myeloma): 0.7944
- AUC (KMS12BM, Myeloma): 0.9973
- AUC (KMS18, Myeloma): 0.7657
- AUC (KMS21BM, Myeloma): 0.9338
- AUC (KMS28BM, Myeloma): 0.817
- AUC (KMS34, Myeloma): 0.8682
- AUC (KNS42, Glioblastoma): 0.8304
- AUC (KNS60, Glioblastoma): 0.7072
- AUC (KNS62, Lung Cancer): 0.8264
- AUC (KP3, Pancreatic Cancer): 0.9118
- AUC (KPNYN, Neuroblastoma): 0.9338
- AUC (KS1, Glioma): 0.6653
- AUC (KU1919, Bladder Cancer): 0.6431
- AUC (KYM1, Rhabdoid): 0.5622
- AUC (KYSE30, Esophageal Cancer): 0.6256
- AUC (KYSE150, Esophageal Cancer): 0.8681
- AUC (KYSE410, Esophageal Cancer): 0.9564
- AUC (KYSE510, Esophageal Cancer): 0.7247
- AUC (KYSE520, Esophageal Cancer): 0.7055
- AUC (LAMA84, CML): 0.6928
- AUC (LC1SQSF, Lung Cancer): 0.7027
- AUC (LCLC103H, Lung Cancer): 0.9264
- AUC (LI7, Liver Cancer): 0.7203
- AUC (LK2, Lung Cancer): 0.847
- AUC (LMSU, Gastric Cancer): 0.7223
- AUC (LN18, Glioblastoma): 0.7097
- AUC (LNCAPCLONEFGC, Prostate Cancer): 0.6119
- AUC (LOUNH91, Lung Cancer): 0.9465
- AUC (LOVO, Colon/Colorectal Cancer): 0.7392
- AUC (LOXIMVI, Melanoma): 0.8926
- AUC (LS180, Colon/Colorectal Cancer): 0.7453
- AUC (LS411N, Colon/Colorectal Cancer): 0.8492
- AUC (LS1034, Colon/Colorectal Cancer): 0.4819
- AUC (LUDLU1, Lung Cancer): 0.9399
- AUC (LXF289, Lung Cancer): 0.6887
- AUC (M059K, Glioblastoma): 0.8677
- AUC (MALME3M, Melanoma): 0.6048
- AUC (MC116, B-cell Lymphoma): 0.8821
- AUC (MCAS, Ovarian Cancer): 0.7202
- AUC (MCF7, Breast Cancer): 0.7287
- AUC (MDAMB175VII, Breast Cancer): 0.9247
- AUC (MDAMB231, Breast Cancer): 0.7703
- AUC (MDAMB361, Breast Cancer): 0.7016
- AUC (MDAMB436, Breast Cancer): 0.9544
- AUC (MDAMB453, Breast Cancer): 0.5182
- AUC (MDAMB468, Breast Cancer): 1
- AUC (MDST8, Colon/Colorectal Cancer): 0.8223
- AUC (MELHO, Melanoma): 0.7944
- AUC (MESSA, Uterine Sarcoma): 0.7132
- AUC (MFE280, Endometrial/Uterine Cancer): 0.7775

From PMC11045757, “Group 3 medulloblastoma transcriptional networks collapse under domain specific EP300/CBP inhibition” (Nature Communications, 2024)
